# Like-named read-outs stand apart in the source and are kept apart here.
# Target: CFTR (Homo sapiens, UniProt P13569)
# Assay: Membrane Potential Dye, Enteroid Assay B
# Format: cell-based
# Summary of the method: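 Human intestinal enteroid cells exposed to compound 18-24 h at 37 °C, then loaded with methyl oxonol membrane-potential dye plus CaCC blockers. Chloride transport triggered in chloride-free buffer with 10 μM forskolin, 100 μM IBMX, 300 nM Compound III; fluorescence read 15 min, expressed as % of triple-corrector/potentiator combination control.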
# [1] = Table 10, read-out: Ent. B EC50
# Sequence of CFTR (P13569 with tags, fused parts or gaps DEL508-508): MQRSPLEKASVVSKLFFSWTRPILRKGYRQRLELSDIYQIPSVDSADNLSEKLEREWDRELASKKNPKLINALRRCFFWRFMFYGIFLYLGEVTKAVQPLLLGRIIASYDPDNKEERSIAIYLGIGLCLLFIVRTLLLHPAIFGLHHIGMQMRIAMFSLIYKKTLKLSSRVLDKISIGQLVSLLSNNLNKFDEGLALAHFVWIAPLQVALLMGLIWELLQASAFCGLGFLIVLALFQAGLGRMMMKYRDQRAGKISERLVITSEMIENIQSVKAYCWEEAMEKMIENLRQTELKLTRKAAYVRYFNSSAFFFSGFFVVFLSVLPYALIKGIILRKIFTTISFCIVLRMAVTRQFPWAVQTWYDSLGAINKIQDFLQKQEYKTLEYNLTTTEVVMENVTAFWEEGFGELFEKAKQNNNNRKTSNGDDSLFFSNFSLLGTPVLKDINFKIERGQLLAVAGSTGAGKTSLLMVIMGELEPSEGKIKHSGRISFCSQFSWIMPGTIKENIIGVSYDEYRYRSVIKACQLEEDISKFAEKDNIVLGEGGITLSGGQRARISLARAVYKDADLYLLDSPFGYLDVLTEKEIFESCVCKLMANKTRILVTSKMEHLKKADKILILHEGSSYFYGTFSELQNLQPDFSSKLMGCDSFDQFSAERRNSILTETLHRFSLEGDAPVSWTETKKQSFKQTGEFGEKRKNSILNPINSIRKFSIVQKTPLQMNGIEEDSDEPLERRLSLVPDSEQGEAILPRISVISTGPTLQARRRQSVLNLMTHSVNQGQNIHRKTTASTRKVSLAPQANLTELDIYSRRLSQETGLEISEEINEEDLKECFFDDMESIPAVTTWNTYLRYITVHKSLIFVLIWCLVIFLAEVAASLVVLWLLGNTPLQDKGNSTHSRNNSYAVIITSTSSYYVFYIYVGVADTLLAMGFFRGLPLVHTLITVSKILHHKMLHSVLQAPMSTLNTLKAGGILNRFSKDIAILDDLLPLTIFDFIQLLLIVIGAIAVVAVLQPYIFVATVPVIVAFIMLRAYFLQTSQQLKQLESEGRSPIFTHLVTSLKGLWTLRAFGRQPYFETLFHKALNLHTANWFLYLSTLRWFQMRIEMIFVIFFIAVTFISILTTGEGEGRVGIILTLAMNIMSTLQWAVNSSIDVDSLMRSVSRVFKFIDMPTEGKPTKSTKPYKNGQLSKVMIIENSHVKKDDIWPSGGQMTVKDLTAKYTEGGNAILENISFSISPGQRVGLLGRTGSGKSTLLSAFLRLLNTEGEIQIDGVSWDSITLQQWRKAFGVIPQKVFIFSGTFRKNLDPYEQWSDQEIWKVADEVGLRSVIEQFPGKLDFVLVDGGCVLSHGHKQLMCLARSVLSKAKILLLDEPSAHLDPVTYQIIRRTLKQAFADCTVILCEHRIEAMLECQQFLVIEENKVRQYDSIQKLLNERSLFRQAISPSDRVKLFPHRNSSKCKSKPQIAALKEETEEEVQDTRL
Compound,Ent. B Max Activity (%) (Table 10),EC50 [1] [nM],Ent. B Max Activity (%) (Table 9),"EC50 (Table 9, read-out: Ent. B EC50) [nM]",also measured
CCC(=O)N[C@H]1C[C@@]2(C1)C[C@H](N1C(=O)c3cccc(c3)S(=O)(=O)Nc3nc(cc(-c4c(C)cccc4C)n3)OC[C@H]1CC1(C(F)(F)F)CC1)C2 (stereo partly shown) [Compound 248],+++ (+++ is >60%),< 1000,,,
CN[C@H]1C[C@]2(C1)C[C@H](N1C(=O)c3cccc(c3)S(=O)(=O)Nc3nc(cc(-c4c(C)cccc4C)n3)OC[C@H]1CC1(C(F)(F)F)CC1)C2 (stereo partly shown) [Compound 268],,,+++ (+++ is >60%),< 1000,
COC1CC(N2C(=O)c3cccc(c3)S(=O)(=O)Nc3nc(cc(-c4c(C)cccc4C)n3)OC[C@H]2CC(C)C)C1 (stereo partly shown) [Compound 467],,,,,Ent. B Max Activity (%): +++ (+++ is >60%); EC50 (read-out: Ent. B EC50): < 1000 nM
Cc1cccc(C)c1-c1cc2nc(n1)NS(=O)(=O)c1cccc(n1)C(=O)N(C1CC3(CCNCC3)C1)[C@H](CC(C)C)CO2 [Compound 392],,,,,Ent. B Max Activity (%): +++ (+++ is >60%); EC50 (read-out: Ent. B EC50): 1000 to 3000 nM
"COC(=O)NC1(C)CC(N2C(=O)c3cccc(c3)S(=O)(=O)Nc3nc(cc(-c4c(C)cccc4C)n3)OC[C@H]2CC(C)(C)C)C1 (single isomer, unassigned) [Compound 172]",+++ (+++ is >60%),< 1000,,,
"COC(=O)NC1CC(N2C(=O)c3cccc(c3)S(=O)(=O)Nc3nc(cc(-c4c(C)cccc4C)n3)OC[C@H]2CC2(C(F)(F)F)CC2)C1 (single isomer, unassigned) [Compound 53]",,,+++ (+++ is >60%),< 1000,
"Cc1cccc(C)c1-c1cc2nc(n1)NS(=O)(=O)c1cccc(c1)C(=O)N([C@H]1C[C@@H](CNC(=O)OC(C)C)C1)[C@H](CC(C)C)CO2 (single isomer, unassigned) [Compound 107]",,,+++ (+++ is >60%),< 1000,
"Cc1cccc(C)c1-c1cc2nc(n1)NS(=O)(=O)c1cccc(c1)C(=O)N([C@H]1C[C@@H](OC(C)C)C1)[C@H](CC1(C(F)(F)F)CC1)CO2 (single isomer, unassigned) [Compound 130]",,,+++ (+++ is >60%),< 1000,
CC(C)(C)C[C@@H]1COc2cc([C@H]3CCCCC3(C)C)nc(n2)NS(=O)(=O)c2cccc(c2)C(=O)N1C1CC2(CC2)C1 [Compound 397],,,,,Ent. B Max Activity (%): ++ (++ is 30-60%); EC50 (read-out: Ent. B EC50): < 1000 nM
Cc1cccc(C)c1-c1cc2nc(n1)NS(=O)(=O)c1cccc(c1)C(=O)N([C@H]1C[C@@H](N3C[C@@H](C)CC3(C)C)C1)[C@H](CC(C)C)CO2 [Compound 359],++ (++ is 30-60%),< 1000,,,
"Cc1cccc(C)c1-c1cc2nc(n1)NS(=O)(=O)c1cccc(c1)C(=O)N([C@H]1C[C@@H](NC(=O)OC(C)C)C1)[C@H](CC(C)C)CO2 (single isomer, unassigned) [Compound 63]",,,,,Ent. B Max Activity (%): +++ (+++ is >60%); EC50 (read-out: Ent. B EC50): < 1000 nM
Cc1cccc(C)c1-c1cc2nc(n1)NS(=O)(=O)c1cccc(c1)C(=O)N(C1CC3(CCN(C(=O)[C@H](C)O)CC3)C1)[C@H](CC(C)C)CO2 [Compound 456],,,+++ (+++ is >60%),< 1000,
Cc1cccc(C)c1-c1cc2nc(n1)NS(=O)(=O)c1cccc(c1)C(=O)N(C1CC(N[C@H]3CC[C@H](CO)CC3)C1)[C@H](CC(C)C)CO2 (stereo partly shown) [Compound 373],,,+++ (+++ is >60%),< 1000,
Cc1cccc(C)c1-c1cc2nc(n1)NS(=O)(=O)c1cccc(c1)C(=O)N(C1CC3(CCN(CCOCc4ccccc4)CC3)C1)[C@H](CC(C)C)CO2 [Compound 290],,,+++ (+++ is >60%),< 1000,
Cc1cccc(C)c1-c1cc2nc(n1)NS(=O)(=O)c1cccc(c1)C(=O)N([C@H]1C[C@@H](OC(F)(F)F)C1)[C@H](CC1(C(F)(F)F)CC1)CO2 (stereo in doubt) [Compound 212],++ (++ is 30-60%),< 1000,,,
"Cc1cccc(C)c1-c1cc2nc(n1)NS(=O)(=O)c1cccc(c1)C(=O)N([C@H]1C[C@]3(C[C@H](NC(=O)OC(C)C)C3)C1)[C@H](CC1(C(F)(F)F)CC1)CO2 (stereo partly drawn) [Compound 79, Isopropyl ((2R,4r,6R)-6-((R)-1^6-(2,6-dimethylphenyl)-3,3-dioxido-5-oxo-7-((1-(trifluoromethyl)cyclopropyl)methyl)-9-oxa-3-thia-2,6-diaza-1(2,4)-pyrimidina-4(1,3)-benzenacyclononaphane-6-yl)spiro[3.3]heptan-2-yl)carbamate]",,,,,Ent. B Max Activity (%): +++ (+++ is >60%); EC50 (read-out: Ent. B EC50): < 1000 nM
Cc1cccc(C)c1-c1cc2nc(n1)NS(=O)(=O)c1cc(n(C)n1)C(=O)N(C1CC3(CCN(C)CC3)C1)[C@H](CC(C)C)CO2 [Compound 293],,,+++ (+++ is >60%),1000 to 3000,

# Now from value to molecule, other results behind:
Ent. B Max Activity (%) (Table 10),EC50 [1] [nM],Ent. B Max Activity (%) (Table 9),"EC50 (Table 9, read-out: Ent. B EC50) [nM]",Compound,also measured
+++ (+++ is >60%),< 1000,,,"Cc1cccc(C)c1-c1cc2nc(n1)NS(=O)(=O)c1cccc(c1)C(=O)N([C@H]1C[C@@H](CC(C)(C)O)C1)[C@H](CC(C)(C)C)CO2 (single isomer, unassigned) [Compound 152]",
,,+++ (+++ is >60%),< 1000,CC(=O)NC1CC(N2C(=O)c3cccc(c3)S(=O)(=O)Nc3nc(cc(-c4c(C)cccc4C)n3)OC[C@H]2CC(C)(C)C)C1 (stereo in doubt) [Compound 449],
++ (++ is 30-60%),< 1000,,,COC(=O)N(C)C1(C)CC(N2C(=O)c3cccc(c3)S(=O)(=O)Nc3nc(cc(-c4c(C)cccc4C)n3)OC[C@H]2CC(C)(C)C)C1 (stereo in doubt) [Compound 241],
++ (++ is 30-60%),< 1000,,,"Cc1cccc(C)c1-c1cc2nc(n1)NS(=O)(=O)c1cccc(c1)C(=O)N(C1CC3(COC(=O)N3)C1)[C@H](CC(C)(C)C)CO2 (single isomer, unassigned) [Compound 176]",
,,++ (++ is 30-60%),1000 to 3000,Cc1cccc(C)c1-c1cc2nc(n1)NS(=O)(=O)c1cccc(c1)C(=O)N(C1CCN(C)CC1)CC(CC(C)C)CO2 (stereo not shown) [Compound 440],
++ (++ is 30-60%),< 1000,,,"COC(=O)N(C)[C@]1(C)C[C@H](N2C(=O)c3cccc(c3)S(=O)(=O)Nc3nc(cc(-c4c(C)cccc4C)n3)OC[C@H]2CC(C)(C)C)C1 (single isomer, unassigned) [Compound 173]",
,,+++ (+++ is >60%),< 1000,"COC(=O)NC1CC2(C1)CC(N1C(=O)c3cccc(c3)S(=O)(=O)Nc3nc(cc(-c4c(C)cccc4C)n3)OC[C@H]1CC(C)(C)C(F)(F)F)C2 (single isomer, unassigned) [Compound 75]",
,,+++ (+++ is >60%),< 1000,"Cc1cccc(C)c1-c1cc2nc(n1)NS(=O)(=O)c1cccc(c1)C(=O)N(C1CC3(CC(NC(=O)OC(C)C)C3)C1)[C@H](CC(C)(C)C)CO2 (stereo partly drawn) [Compound 92, Isopropyl ((2S,4s,6S)-6-((R)-1^6-(2,6-dimethylphenyl)-7-neopentyl-3,3-dioxido-5-oxo-9-oxa-3-thia-2,6-diaza-1(2,4)-pyrimidina-4(1,3)-benzenacyclononaphane-6-yl)spiro[3.3]heptan-2-yl)carbamate]",
,,+++ (+++ is >60%),< 1000,CCC(=O)NC1CC(N2C(=O)c3cccc(c3)S(=O)(=O)Nc3nc(cc(-c4c(C)cccc4C)n3)OC[C@H]2CC(C)(C)C)C1 (stereo in doubt) [Compound 446],
+++ (+++ is >60%),< 1000,,,COCCn1cc(N2C(=O)c3cccc(c3)S(=O)(=O)Nc3nc(cc(-c4c(C)cccc4C)n3)OC[C@H]2CC(C)(C)C)cn1 [Compound 225],
+++ (+++ is >60%),< 1000,,,Cc1cccc(C)c1-c1cc2nc(n1)NS(=O)(=O)c1cccc(c1)C(=O)N([C@H]1C[C@](C)(NC(=O)OC(C)C)C1)[C@H](CC(C)(C)C)CO2 (stereo in doubt) [Compound 245],
,,+++ (+++ is >60%),< 1000,COC(=O)N[C@H]1C[C@@H](N2C(=O)c3cccc(c3)S(=O)(=O)Nc3nc(cc(-c4c(C)cccc4C)n3)OC[C@H]2CC(C)(C)C)C1 [Compound 472],
++ (++ is 30-60%),< 1000,,,"Cc1cccc(C)c1-c1cc2nc(n1)NS(=O)(=O)c1cccc(c1)C(=O)N([C@@H]1CC[C@@H]1C1CC1)[C@H](CC(C)(C)C)CO2 (single isomer, unassigned) [Compound 147]",
,,+++ (+++ is >60%),< 1000,"COCCN(C)[C@H]1C[C@@]2(C1)C[C@H](N1C(=O)c3cccc(c3)S(=O)(=O)Nc3nc(cc(-c4c(C)cccc4C)n3)OC[C@H]1CC1(C(F)(F)F)CC1)C2 (stereo partly drawn) [Compound 83, (R)-16-(2,6-Dimethylphenyl)-6-((2R,4r,6R)-6-((2-methoxyethyl)(methyl)amino)spiro[3.3]heptan-2-yl)-7-((1-(trifluoromethyl)cyclopropyl)methyl)-9-oxa-3-thia-2,6-diaza-1(2,4)-pyrimidina-4(1,3)-benzenacyclononaphan-5-one 3,3-dioxide]",
++ (++ is 30-60%),< 1000,,,"Cc1cccc(C)c1-c1cc2nc(n1)NS(=O)(=O)c1cccc(c1)C(=O)N(C1CC3(C1)CC(C)(O)C3)[C@H](CC(C)(C)C)CO2 (single isomer, unassigned) [Compound 120]",
,,+++ (+++ is >60%),< 1000,COCC(=O)N1CCC2(CC1)CC(N1C(=O)c3cccc(c3)S(=O)(=O)Nc3nc(cc(-c4c(C)cccc4C)n3)OC[C@H]1CC(C)C)C2 [Compound 459],
,,+++ (+++ is >60%),< 1000,"Cc1cccc(C)c1-c1cc2nc(n1)NS(=O)(=O)c1cccc(c1)C(=O)N(C1CC3(CC(NC(=O)OC(C)C)C3)C1)[C@H](CC(C)(C)C)CO2 (single isomer, unassigned) [Compound 93]",
+++ (+++ is >60%),< 1000,,,"Cc1cccc(C)c1-c1cc2nc(n1)NS(=O)(=O)c1cccc(c1)C(=O)N(C1CC3(C1)CC(C(C)(C)O)C3)[C@H](CC(C)(C)C)CO2 (single isomer, unassigned) [Compound 117]",
